Type in all cases: biochemical
One assay addresses T1, JAK3 (Homo sapiens, UniProt P52333).
T1 construct: All four purified enzymes contain only the catalytic domain; His (N); purchased Carna Biosciences, Inc; host or cells: baculovirus expression system
The assay can be described thus: JAK kinase assay (HTRF, phosphorylation of synthetic peptide), JAK3. To be noted: catalytic domain, ATP at Km (2 μM); read-out: JAK3 kinase inhibitory activity (EC50). On the procedure: (§1) Human baculovirus-expressed JAK1, 2, 3 and TYK2 were purchased from Carna Biosciences, Inc. All four purified enzymes contain only the catalytic domain. JAK1 (aa 850-1154) and TYK2 (aa 871-1187) are expressed with an N-terminally fused GST-tag, and JAK2 and JAK3 with an N-terminally fused His-tag.
(§2) Inhibition of phosphorylation of a synthetic peptide was measured in an HTRF-based assay using the TK substrate-Biotin from the Cisbio HTRFKinEASE TK kit. First, 2 μl of TK solution (TK substrate-biotin in kinase buffer [1× enzymatic buffer from HTRFKinEASE TK kit, 1 mM DTT]) is added to a plate containing 1 μl prediluted compound (final assay concentration DMSO: 0.75%). Then, 5 μl kinase-ATP mix (prepared in kinase buffer) is added to the wells and the plates are incubated at RT for 20-30 min. For all four kinases a concentration of ATP that corresponded to the Km for ATP was used. The final concentrations of buffers, substrate, kinase and ATP were: JAK1: 50 mM Hepes buffer pH 7.0, 0.01% BSA, 10 mM MgCl2, 1 mM DTT, 7 μM ATP, 50 nM SEB, 1 μM TK Substrate-Biotin and 5 ng JAK1; JAK2: 50 mM Hepes buffer pH 7.0, 0.01% BSA, 5 mM MgCl2, 1 mM DTT, 4 μM ATP, 1 μM TK Substrate-Biotin and 0.1 ng JAK2; JAK3: 50 mM Hepes buffer pH 7.0, 0.01% BSA, 5 mM MgCl2, 1 mM DTT, 2 μM ATP, 1 μM TK Substrate-Biotin and 0.3 ng JAK3; TYK2: 50 mM Hepes buffer pH 7.0, 0.01% BSA, 5 mM MgCl2, 1 mM DTT, 13 μM ATP, 50 nM SEB, 1 μM TK Substrate-Biotin and 0.8 ng TYK2. Thereafter, the kinase reaction is stopped by adding 4 μl detection mix (final concentrations: 50 mM Hepes buffer pH 7.0, 0.01% BSA, 0.8 M KF, 20 mM EDTA, 42 nM Streptavidin-XL665 and 1:400 STK Ab Cryptate) and the plates are incubated overnight in the dark. The HTRF signal is read using an Envision plate reader.
(In general: Time-resolved FRET reads energy transfer from a long-lived donor to a nearby acceptor.)

A further assay concerns the target T2, TYK2 (Homo sapiens, UniProt P29597).
T2 construct: JAK1 (aa 850-1154) and TYK2 (aa 871-1187) are expressed with an N-terminally fused GST-tag; GST (N); purchased Carna Biosciences, Inc; host or cells: baculovirus expression system
T2 sequence (P29597 871-1187): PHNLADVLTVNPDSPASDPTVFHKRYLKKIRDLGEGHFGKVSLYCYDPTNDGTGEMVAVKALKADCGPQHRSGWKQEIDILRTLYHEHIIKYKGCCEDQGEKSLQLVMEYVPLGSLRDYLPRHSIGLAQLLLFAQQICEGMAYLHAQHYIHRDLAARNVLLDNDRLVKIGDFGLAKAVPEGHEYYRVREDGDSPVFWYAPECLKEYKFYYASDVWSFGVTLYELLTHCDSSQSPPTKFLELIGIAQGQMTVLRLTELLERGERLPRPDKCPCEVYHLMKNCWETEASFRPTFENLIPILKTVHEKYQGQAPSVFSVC
The assay can be described thus: JAK kinase assay (HTRF, phosphorylation of synthetic peptide), TYK2. The settings on record: catalytic domain, ATP at Km (13 μM); read-out: TYK2 kinase inhibitory activity (EC50). On the procedure:
as §1, §2

The next assay concerns the target T3, JAK2 (Homo sapiens, UniProt O60674).
T3 construct: All four purified enzymes contain only the catalytic domain; His (N); purchased Carna Biosciences, Inc; host or cells: baculovirus expression system
As to the kind of experiment: JAK kinase assay (HTRF, phosphorylation of synthetic peptide), JAK2. To be noted: catalytic domain, ATP at Km (4 μM); read-out: JAK2 kinase inhibitory activity (EC50). On the procedure: as §1, §2

The target in the next assay is T4, JAK1 (Homo sapiens, UniProt P23458).
T4 construct: JAK1 (aa 850-1154) and TYK2 (aa 871-1187) are expressed with an N-terminally fused GST-tag; GST (N); purchased Carna Biosciences, Inc; host or cells: baculovirus expression system
T4 sequence (P23458 850-1154): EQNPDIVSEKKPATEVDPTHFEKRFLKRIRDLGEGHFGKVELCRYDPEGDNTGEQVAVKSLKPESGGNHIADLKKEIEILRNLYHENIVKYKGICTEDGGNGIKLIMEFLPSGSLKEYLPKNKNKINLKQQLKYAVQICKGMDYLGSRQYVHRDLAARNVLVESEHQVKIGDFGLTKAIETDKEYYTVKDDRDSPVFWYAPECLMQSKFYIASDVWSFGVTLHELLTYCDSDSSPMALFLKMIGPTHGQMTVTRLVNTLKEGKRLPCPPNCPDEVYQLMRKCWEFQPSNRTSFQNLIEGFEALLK
The assay can be described thus: JAK kinase assay (HTRF, phosphorylation of synthetic peptide), JAK1. To be noted: catalytic domain, ATP at Km (7 μM); read-out: JAK1 kinase inhibitory activity (EC50). On the procedure: as §1, §2

T3 sequence (O60674 849-1124 limits assumed): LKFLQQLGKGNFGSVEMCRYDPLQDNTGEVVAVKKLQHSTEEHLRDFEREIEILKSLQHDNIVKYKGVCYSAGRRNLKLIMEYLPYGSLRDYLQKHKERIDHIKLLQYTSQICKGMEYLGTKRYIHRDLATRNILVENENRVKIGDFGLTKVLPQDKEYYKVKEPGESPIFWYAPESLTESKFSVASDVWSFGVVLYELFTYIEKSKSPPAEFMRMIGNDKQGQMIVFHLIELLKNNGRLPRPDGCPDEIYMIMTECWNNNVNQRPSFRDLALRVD
T1 sequence (P52333 822-1111 limits assumed): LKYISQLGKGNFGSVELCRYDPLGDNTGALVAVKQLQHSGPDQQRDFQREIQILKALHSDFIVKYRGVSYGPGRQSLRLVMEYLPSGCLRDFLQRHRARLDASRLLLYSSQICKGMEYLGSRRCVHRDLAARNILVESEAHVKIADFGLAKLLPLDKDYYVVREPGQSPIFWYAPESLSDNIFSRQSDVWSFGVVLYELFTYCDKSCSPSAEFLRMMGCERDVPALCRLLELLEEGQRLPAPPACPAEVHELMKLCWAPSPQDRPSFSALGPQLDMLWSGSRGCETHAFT

As for `N#CCCN(CC1CCCO1)S(=O)(=O)N1CCN(c2ncnc3[nH]ccc23)CC12CC2` (stereo not drawn) [Example 142, N-(2-cyanoethyl)-5-(7H-pyrrolo[2,3-d]pyrimidin-4-yl)-N-(tetrahydrofuran-2-ylmethyl)-5,8-diazaspiro[2.5]octane-8-sulfonamide], the EC50 at JAK3 was below 100 nM; on TYK2 it was 100 to 500 nM; on JAK2, below 100 nM; at JAK1 it was below 100 nM.
On to `CCC(=O)CN(CCc1ccccc1)S(=O)(=O)N1CCN(c2ncnc3[nH]ccc23)CC12CC2` [Example 4, 7-(7H-Pyrrolo[2,3-d]pyrimidin-4-yl)-4,7-diaza-spiro[2.5]octane-4-sulfonic acid (2-oxo-butyl)-phenethyl-amide], for which the EC50 was 100 to 500 nM at JAK3, above 500 nM on TYK2, below 100 nM at JAK2 and below 100 nM at JAK1.
Take `CC(C)N(CC#N)S(=O)(=O)N1CCN(c2ncnc3[nH]ccc23)CC12CC2` [Example 96, N-(cyanomethyl)-N-isopropyl-5-(7H-pyrrolo[2,3-d]pyrimidin-4-yl)-5,8-diazaspiro[2.5]octane-8-sulfonamide]: the EC50 on JAK3 is 100 to 500 nM; on TYK2, above 500 nM; at JAK2 it was below 100 nM; at JAK1 it was below 100 nM.
`CN(CCc1ccccc1)S(=O)(=O)N1CCN(c2ncnc3[nH]ccc23)CC12CC2` [Example 58, 7-(7H-Pyrrolo[2,3-d]pyrimidin-4-yl)-4,7-diaza-spiro[2.5]octane-4-sulfonic acid methyl-phenethyl-amide]: the EC50 is below 100 nM at JAK3, 100 to 500 nM at TYK2, below 100 nM on JAK2 and below 100 nM at JAK1.
On to `CN(Cc1ccno1)S(=O)(=O)N1CCN(c2ncnc3[nH]ccc23)CC12CC2` [Example 68, N-(isoxazol-5-ylmethyl)-N-methyl-5-(7H-pyrrolo[2,3-d]pyrimidin-4-yl)-5,8-diazaspiro[2.5]octane-8-sulfonamide], for which the EC50 at JAK3 is below 100 nM; at TYK2, 100 to 500 nM; on JAK2, below 100 nM; on JAK1, below 100 nM.
For the molecule `O=S1(=O)CCC(CN(CCO)S(=O)(=O)N2CCN(c3ncnc4[nH]ccc34)CC23CC3)C1` (stereo not drawn) [Example 167, N-[(1,1-dioxothiolan-3-yl)methyl]-N-(2-hydroxyethyl)-5-(7H-pyrrolo[2,3-d]pyrimidin-4-yl)-5,8-diazaspiro[2.5]octane-8-sulfonamide], the EC50 on JAK3 is below 100 nM; on TYK2, 100 to 500 nM; at JAK2, below 100 nM; at JAK1 it was below 100 nM.
`CC(=O)N(CC1CCS(=O)(=O)CC1)S(=O)(=O)N1CCN(c2ncnc3[nH]ccc23)CC12CC2` [Example 173, N-[(1,1-dioxothian-4-yl)methyl]-N-[[5-(7H-pyrrolo[2,3-d]pyrimidin-4-yl)-5,8-diazaspiro[2.5]octan-8-yl]sulfonyl]acetamide]: the EC50 is below 100 nM on JAK3, 100 to 500 nM at TYK2, below 100 nM on JAK2 and below 100 nM at JAK1.
In the case of `CN(CCOc1ccccc1C#N)S(=O)(=O)N1CCN(c2ncnc3[nH]ccc23)CC12CC2` [Example 70, N-[2-(2-cyanophenoxy)ethyl]-N-methyl-5-(7H-pyrrolo[2,3-d]pyrimidin-4-yl)-5,8-diazaspiro[2.5]octane-8-sulfonamide], the half-maximal effective concentration (EC50) at JAK3 is 100 to 500 nM; on TYK2 it was above 500 nM; at JAK2, below 100 nM; on JAK1, below 100 nM.
In the case of `CN(CCc1ccc(F)cc1)S(=O)(=O)N1CCN(c2ncnc3[nH]ccc23)CC12CC2` [Example 16, 7-(7H-Pyrrolo[2,3-d]pyrimidin-4-yl)-4,7-diaza-spiro[2.5]octane-4-sulfonic acid [2-(4-fluoro-phenyl)-ethyl]-methyl-amide], the EC50 was below 100 nM on JAK3, 100 to 500 nM at TYK2, below 100 nM on JAK2 and below 100 nM at JAK1.

A word on the EC50: it is the concentration at which the effect is half-maximal.

Source of the values: patent US9233964B2, “Sulfamide piperazine derivatives as protein tyrosine kinase inhibitors and pharmaceutical use therof” (LEO PHARMA A/S, priority 2011, dated 2016).
